Consider 19 compounds from patent publication US12454534B2, “Pyrrolo[2,3-b]pyrazines as HPK1 inhibitor and the use thereof” (BEIGENE, LTD., priority 2019, dated 2025).

In assay [1] the target is T1, HPK1 kinase (aa1-346, Life Technologies) (Homo sapiens, UniProt Q92918).
T1 construct: HPK1 kinase (aa1-346, Life Technologies); purchased Life Technologies
T1 sequence (Q92918 1-346): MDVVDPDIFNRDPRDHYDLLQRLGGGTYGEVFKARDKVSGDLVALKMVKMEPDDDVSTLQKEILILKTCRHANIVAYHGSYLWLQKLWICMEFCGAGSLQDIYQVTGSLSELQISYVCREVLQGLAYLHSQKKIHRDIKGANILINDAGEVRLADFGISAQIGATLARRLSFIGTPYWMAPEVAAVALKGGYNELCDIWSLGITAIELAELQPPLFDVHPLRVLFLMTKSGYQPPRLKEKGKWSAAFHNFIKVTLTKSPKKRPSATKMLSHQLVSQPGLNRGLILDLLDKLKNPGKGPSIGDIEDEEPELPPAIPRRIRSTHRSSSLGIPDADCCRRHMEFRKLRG
Description: HPK1 Kinase Activity Assay at 1 mM ATP (TR-FRET). Type of assay: biochemical. To be noted: HPK1 40 nM, read-out: Enzymatic activity IC50. The protocol:
HPK1 Kinase Activity Assay at 1 mM ATP
Compounds disclosed herein were tested for inhibition of HPK1 kinase (aa1-346, Life Technologies) activity in assays based on the time-resolved fluorescence-resonance energy transfer (TR-FRET) methodology. The assays were carried out in 384-well low volume black plates in a reaction mixture containing HPK1 kinase (40 nM), 1 mM ATP, 0.5 μM STK1 substrate and 0-10 μM compound in buffer containing 50 mM HEPES, 0.01% BSA, 0.1 mM Orthovanadate, 10 mM MgCl2, 1 mM DTT, pH=7.0, 0.005% Tween-20. The kinase was incubated with the compounds disclosed herein or DMSO for 60 minutes at room temperature and the reaction was initiated by the addition of ATP and STK1 substrate. After reaction at room temperature for 120 minutes, an equal volume of stop/detection solution was added according to the manufacturer's instruction (CisBio). The stop/detection solution contained STK Antibody-Cryptate and XL665-conjugated streptavidin in Detection Buffer. The TR-FRET signals (ratio of fluorescence emission at 665 nm over emission at 620 nm with excitation at 337 nm wavelength) were recorded on a PHERAstar FS plate reader (BMG Labtech). Phosphorylation of STK1 substrate led to the binding of STK Antibody-Cryptate to the biotinylated STK1 substrate, which places fluorescent donor (Eu^3+ cryptate) in close proximity to the accepter (Streptavidin-XL665), thus resulting in a high degree of fluorescence resonance energy transfer. The inhibition of HPK1 in presence of increasing concentrations of compounds was calculated based on the ratio of fluorescence at 665 nm to that at 620 nm. The IC50 for each compound was derived from fitting the data to the four-parameter logistic equation by Graphpad Prism software.
In general terms: Time-resolved FRET reads energy transfer from a long-lived donor to a nearby acceptor.

A further assay has as its system HEK293 cells. Description: HEK293 cell viability assay (CellTiter-Glo). Type of assay: cell-based. To be noted: 3-day exposure, 0 to 10 μM. The protocol: Cytotoxicity on HEK293 Cells Proliferation (HEK293 Cell Viability Assay)
HEK293 cell line were used in this study. Cell lines were maintained in DMEM (Dulbecco's Modified Eagle Medium) supplemented with 10% fetal bovine serum (Thermo Fisher), 50 units/mL penicillin and streptomycin (Thermo Fisher) and kept at 37° C. in a humidified atmosphere containing 5% CO2 in air. Cell lines were reinstated from frozen stocks that were laid down within 50 passages from the original cells purchased. The growth-inhibitory activity of compounds in HEK293 cells was determined using CellTiter-Glo luminescent cell viability assay (Promega). 3000 cells per well were seeded into a 96-well plate to ensure logarithmic growth for 3 days treatment period. Cells were treated with a 10-point dilution series. The final compound concentration was from 0 to 10 μM. Following a 3-day exposure to the test compounds, 30 μL of CellTiter-Glo reagent was added into 100 μL cell culture medium per well. Mixture was mixed on an orbital shaker for 2 minutes to allow cell lysis, followed by 10 minutes of incubation at room temperature to allow development and stabilization of luminescent signal, which corresponded to the quantity of ATP and thus the quantity of metabolically active cells. Luminescent signal was measured using PHERAstar FS reader (BMG Labtech). IC50 values for cell viability were determined with Dotmatics.
A general note: ATP-based viability assays read luminescence as a measure of living cells.

Molecules are shown by their SMILES.

The IC50 is the concentration needed to halve the response being measured. Turning to `COc1cc(-c2cnc3[nH]cc(-c4ccc(C(=O)N(C)C[C@H](C)O)cc4)c3n2)cc2c1CN(C)CC2` [Example 3, (S)—N-(2-hydroxypropyl)-4-(2-(8-methoxy-2-methyl-1,2,3,4-tetrahydroisoquinolin-6-yl)-5H-pyrrolo[2,3-b]pyrazin-7-yl)-N-methylbenzamide], the IC50 stood at 12 nM in assay [1] and 1270 nM in the assay with HEK293 cells (Homo sapiens, HEK293, 72 h). As to `Cc1cc(-c2c[nH]c3ncc(-c4cc(C)c5c(c4)CCN(C)C5)nc23)ccc1C(=O)N(C)C` [Example 126, 4-(2-(2,8-dimethyl-1,2,3,4-tetrahydroisoquinolin-6-yl)-5H-pyrrolo[2,3-b]pyrazin-7-yl)-N, N, 2-trimethylbenzamide], the IC50 was 43 nM in assay [1] and more than 10000 nM with HEK293 cells (Homo sapiens, HEK293, 72 h). `Cc1cc(-c2c[nH]c3ncc(-c4cc(C)c5c(c4)CN(C)CC5)nc23)ccc1C(=O)N(C)C` [Example 2, 4-(2-(2,5-dimethyl-1,2,3,4-tetrahydroisoquinolin-7-yl)-5H-pyrrolo[2,3-b]pyrazin-7-yl)-N, N, 2-trimethylbenzamide]: the half-inhibitory concentration (IC50) in assay [1] stood at 26 nM; in the assay on HEK293 cells (Homo sapiens, HEK293, 72 h) it was 3340 nM. For `Cc1cc(-c2cnc3[nH]cc(-c4ccc(C(=O)N(C)C)cc4)c3n2)cc2c1CCN(C)C2` [Example 1, 4-[2-(2,5-dimethyl-3,4-dihydro-1H-isoquinolin-7-yl)-5H-pyrrolo[2,3-b]pyrazin-7-yl]-N, N-dimethylbenzamide] the same measures were 24 nM and 3650 nM.

Consider `CN1CCc2c(cc(-c3cnc4[nH]cc(-c5ccc(C(=O)N(C)C)cc5)c4n3)cc2C(F)F)C1` [Example 95, 4-(2-(5-(difluoromethyl)-2-methyl-1,2,3,4-tetrahydroisoquinolin-7-yl)-5H-pyrrolo[2,3-b]pyrazin-7-yl)-N, N-dimethylbenzamide], for which the 50% inhibitory concentration (IC50) in assay [1] was 71 nM; with HEK293 cells (Homo sapiens, HEK293, 72 h), 5180 nM. For `Cc1cc(-c2c[nH]c3ncc(-c4cc(C)c5c(c4)CN(C)CC5)nc23)ccc1C(=O)N1CC2(COC2)C1` [Example 16, (4-(2-(2,5-dimethyl-1,2,3,4-tetrahydroisoquinolin-7-yl)-5H-pyrrolo[2,3-b]pyrazin-7-yl)-2-methylphenyl) (2-oxa-6-azaspiro[3.3]heptan-6-yl)methanone] the same measures were 88 nM and more than 10000 nM. With `Cc1cc(-c2cnc3[nH]cc(-c4ccc(C(=O)N(C)CC(C)(C)O)cc4)c3n2)cc2c1CCN(C)C2` [Example 38, 4-(2-(2,5-dimethyl-1,2,3,4-tetrahydroisoquinolin-7-yl)-5H-pyrrolo[2,3-b]pyrazin-7-yl)-N-(2-hydroxy-2-methylpropyl)-N-methylbenzamide], the results for the concentration for half-maximal inhibition (IC50) (in assay [1]; in the assay on HEK293 cells) were 65 nM and 2190 nM, respectively. Take `CCN1CCc2c(C)cc(-c3cnc4[nH]cc(-c5ccc(C(=O)N(C)C)c(C)c5)c4n3)cc2C1` [Example 127, 4-(2-(2-ethyl-5-methyl-1,2,3,4-tetrahydroisoquinolin-7-yl)-5H-pyrrolo[2,3-b]pyrazin-7-yl)-N, N, 2-trimethylbenzamide]: the IC50 in assay [1] was 86 nM; with HEK293 cells (Homo sapiens, HEK293, 72 h), 3130 nM.

For `COc1cc(-c2cnc3[nH]cc(-c4ccc(C(=O)N(C)C[C@H](C)O)c(C)c4)c3n2)cc2c1CN(C)CC2` [Example 6, (S)—N-(2-hydroxypropyl)-4-(2-(8-methoxy-2-methyl-1,2,3,4-tetrahydroisoquinolin-6-yl)-5H-pyrrolo[2,3-b]pyrazin-7-yl)-N, 2-dimethylbenzamide], the half-inhibitory concentration (IC50) in assay [1] came to 32 nM; with HEK293 cells (Homo sapiens, HEK293, 72 h), 5560 nM. Regarding `Cc1cc(-c2cnc3[nH]cc(-c4ccc(C(=O)N(C)C[C@@H]5CCOC5)cc4)c3n2)cc2c1CCN(C)C2` [Example 35, (S)-4-(2-(2,5-dimethyl-1,2,3,4-tetrahydroisoquinolin-7-yl)-5H-pyrrolo[2,3-b]pyrazin-7-yl)-N-methyl-N-((tetrahydrofuran-3-yl)methyl)benzamide], the half-inhibitory concentration (IC50) in assay [1] is 19 nM.

In the case of `Cc1cc(-c2c[nH]c3ncc(-c4cc(C)c5c(c4)CN(CCC(=O)N(C)C)CC5)nc23)ccc1C(=O)N(C)C` [Example 26, 4-(2-(2-(3-(dimethylamino)-3-oxopropyl)-5-methyl-1,2,3,4-tetrahydroisoquinolin-7-yl)-5H-pyrrolo[2,3-b]pyrazin-7-yl)-N, N, 2-trimethylbenzamide], the IC50 in assay [1] worked out at 63 nM.

`Cc1cc(-c2cnc3[nH]cc(-c4ccc(C(=O)N(C)C[C@@H](C)O)cc4)c3n2)cc2c1CCN(C)C2` [Example 8, (R)-4-(2-(2,5-dimethyl-1,2,3,4-tetrahydroisoquinolin-7-yl)-5H-pyrrolo[2,3-b]pyrazin-7-yl)-N-(2-hydroxypropyl)-N-methylbenzamide]: the 50% inhibitory concentration (IC50) in assay [1] came out at 36 nM.

Take `Cc1cc(-c2cnc3[nH]cc(-c4ccc(C(=O)N(C)C[C@H](C)O)cc4)c3n2)cc2c1CCN(C)C2` [Example 5, (S)-4-(2-(2,5-dimethyl-1,2,3,4-tetrahydroisoquinolin-7-yl)-5H-pyrrolo[2,3-b]pyrazin-7-yl)-N-(2-hydroxypropyl)-N-methylbenzamide]: the IC50 in assay [1] came out at 21 nM.

For `Cc1cc(-c2c[nH]c3ncc(-c4cc(C)c5c(c4)CN(CCC(=O)N[C@@H]4CCOC4)CC5)nc23)ccc1C(=O)N(C)C` [Example 34, (R)—N, N, 2-trimethyl-4-(2-(5-methyl-2-(3-oxo-3-(tetrahydrofuran-3-ylamino)propyl)-1,2,3,4-tetrahydroisoquinolin-7-yl)-5H-pyrrolo[2,3-b]pyrazin-7-yl)benzamide], the IC50 in assay [1] was 42 nM.

Turning to `Cc1cc(-c2c[nH]c3ncc(-c4cc(C)c5c(c4)CN(CCC(=O)NC4CCOCC4)CC5)nc23)ccc1C(=O)N(C)C` [Example 28, N, N, 2-trimethyl-4-(2-(5-methyl-2-(3-oxo-3-(tetrahydro-2H-pyran-4-ylamino)propyl)-1,2,3,4-tetrahydroisoquinolin-7-yl)-5H-pyrrolo[2,3-b]pyrazin-7-yl)benzamide], the IC50 in assay [1] turned out to be 67 nM.

`COc1cc(-c2cnc3[nH]cc(-c4ccc(C(=O)N(C)C[C@@H]5CCOC5)cc4)c3n2)cc2c1CN(C)CC2` [Example 57, (S)-4-(2-(8-methoxy-2-methyl-1,2,3,4-tetrahydroisoquinolin-6-yl)-5H-pyrrolo[2,3-b]pyrazin-7-yl)-N-methyl-N-((tetrahydrofuran-3-yl)methyl)benzamide]: the IC50 in assay [1] turned out to be 14 nM. Still for that read-out and setting: under `COCCCN(C)C(=O)c1ccc(-c2c[nH]c3ncc(-c4cc(C)c5c(c4)CN(C)CC5)nc23)cc1` [Example 40, 4-(2-(2,5-dimethyl-1,2,3,4-tetrahydroisoquinolin-7-yl)-5H-pyrrolo[2,3-b]pyrazin-7-yl)-N-(3-methoxypropyl)-N-methylbenzamide] stands 17 nM; under `Cc1cc(-c2c[nH]c3ncc(-c4cc(C)c5c(c4)CN(CCC(=O)NC4(CO)CC4)CC5)nc23)ccc1C(=O)N(C)C` [Example 31, 4-(2-(2-(3-(1-(hydroxymethyl)cyclopropylamino)-3-oxopropyl)-5-methyl-1,2,3,4-tetrahydroisoquinolin-7-yl)-5H-pyrrolo[2,3-b]pyrazin-7-yl)-N, N, 2-trimethylbenzamide], 53 nM. For `Cc1cc(-c2c[nH]c3ncc(-c4cc(C)c5c(c4)CN(CCC(=O)NCCO)CC5)nc23)ccc1C(=O)N(C)C` [Example 45, 4-(2-(2-(3-((2-hydroxyethyl)amino)-3-oxopropyl)-5-methyl-1,2,3,4-tetrahydroisoquinolin-7-yl)-5H-pyrrolo[2,3-b]pyrazin-7-yl)-N, N, 2-trimethylbenzamide], the IC50 in assay [1] is 52 nM.
